In patent US8536172B2, “Inhibitors of JNK” (Roche Palo Alto LLC, priority 2009, dated 2013):

Legend:
[1] = biological target: Human JNK2α2 (Homo sapiens (Human), UniProt P45984); experiment: JNK assay in vitro: phosphorylation of GST-ATF2 (19-96) with [γ-33P] ATP, JNK2; assay type: biochemical; settings: 1 nM enzyme, 1 μM ATF2, 8 μM ATP (Km), 30° C. 30 min
Protocol: (§1) JNK activity was measured by phosphorylation of GST-ATF2 (19-96) with [γ-^33P] ATP. […] Human JNK2α2 assay contains 1 nM enzyme, 1 μM ATF2, 8 μM ATP with 1 uCi [γ-^33P] ATP. Human JNK1α1 assay contains 2 nM enzyme, 1 μM ATF2, 6 μM ATP with 1 μCi [γ-^33P] ATP. Human JNK3 (Upstate Biotech #14-501M) assay contains 2 nM enzyme, 1 μM ATF2, 4 μM ATP with 1 μCi [γ-^33P] ATP. The enzyme assay was carried out in the presence or absence of several compound concentrations. JNK and compound were pre-incubated for 10 min., followed by initiation of the enzymatic reaction by adding ATP and the substrate. The reaction mixture was incubated at 30° C. for 30 min. At the end of incubation, the reaction was terminated by transferring 25 μl of the reaction mixture to 150 μl of 10% glutathione Sepharose® slurry (Amersham #27-4574-01) containing 135 mM EDTA. The reaction product was captured on the affinity resin, and washed on a filtration plate (Millipore, MABVNOB50) with phosphate buffered saline for six times to remove free radionucleotide. The incorporation of ^33P into ATF2 was quantified on a microplate scintillation counter (Packard Topcount). Compound inhibition potency on JNK was measured by IC50 value generated from ten concentration inhibition curves fitted into the 3-parameter model: % inhibition=Maximum/(1+(IC50/[Inhibitor])^slope). Data were analyzed on Microsoft Excel for parameter estimation.

[2] = biological target: Human JNK1α1 (Homo sapiens (Human), UniProt P45983); experiment: JNK assay in vitro: phosphorylation of GST-ATF2 (19-96) with [γ-33P] ATP, JNK1; assay type: biochemical; settings: 2 nM enzyme, 1 μM ATF2, 6 μM ATP (Km), 30° C. 30 min
Human JNK1α1, sequence (P45983 other isoform, or with tags, fused parts or gaps): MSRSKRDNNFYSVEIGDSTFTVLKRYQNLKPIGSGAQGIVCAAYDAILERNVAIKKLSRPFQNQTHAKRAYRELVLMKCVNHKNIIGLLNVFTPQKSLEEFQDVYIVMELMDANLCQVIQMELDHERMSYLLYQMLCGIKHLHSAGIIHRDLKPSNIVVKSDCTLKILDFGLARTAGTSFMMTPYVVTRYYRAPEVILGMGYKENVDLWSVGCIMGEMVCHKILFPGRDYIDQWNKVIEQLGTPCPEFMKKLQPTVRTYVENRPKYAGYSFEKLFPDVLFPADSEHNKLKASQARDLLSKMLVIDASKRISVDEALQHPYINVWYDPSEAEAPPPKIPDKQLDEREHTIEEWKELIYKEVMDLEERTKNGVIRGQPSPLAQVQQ
Protocol: as §1, with “Human JNK3 (Upstate Biotech #14-501M) assay contains 2 nM enzyme, 1 μM ATF2, 4 μM ATP with 1 μCi [γ-^33P]” left out, “At the end of incubation, the reaction was terminated by transferring 25 μl of the reaction mixture to 150 μl of 10% glutathione Sepharose® slurry (Amersham #27-4574-01) containing 135 mM EDTA. The reaction product was captured on the affinity resin, and washed on a filtration plate (Millipore, MABVNOB50) with phosphate buffered saline for six times to remove free radionucleotide.” left out

Human JNK2α2, sequence (P45984 whole entry): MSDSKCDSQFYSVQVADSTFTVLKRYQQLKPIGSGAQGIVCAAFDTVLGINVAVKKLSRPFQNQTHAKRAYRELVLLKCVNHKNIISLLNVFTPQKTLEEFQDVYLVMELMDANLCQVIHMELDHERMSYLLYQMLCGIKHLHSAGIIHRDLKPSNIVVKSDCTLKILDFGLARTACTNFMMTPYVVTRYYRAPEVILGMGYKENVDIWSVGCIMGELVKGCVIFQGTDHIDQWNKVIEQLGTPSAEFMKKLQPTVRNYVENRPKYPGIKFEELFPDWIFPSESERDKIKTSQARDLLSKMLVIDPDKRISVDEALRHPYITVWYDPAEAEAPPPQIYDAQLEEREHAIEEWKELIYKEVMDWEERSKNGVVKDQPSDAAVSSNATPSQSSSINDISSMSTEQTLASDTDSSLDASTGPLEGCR

O[C@H]1CC[C@H](Nc2nccc(-n3ccc4c(N5CCCCC5)cccc43)n2)CC1 [Compound I-2, 4-[4-(4-Piperidin-1-yl-indol-1-yl)-pyrimidin-2-ylamino]-cyclohexanol]
IC50 [1]: 654 nM | IC50 [2]: 93.9 nM

CS(=O)(=O)N[C@H]1CC[C@H](Nc2nccc(-n3ccc4c(N5CCC(O)CC5)cccc43)n2)CC1 [Compound I-4, N-(4-{4-[4-(4-Hydroxy-piperidin-1-yl)-indol-1-yl]-pyrimidin-2-ylamino}-cyclohexyl)-methanesulfonamide]
IC50 [1]: 292 nM | IC50 [2]: 42.9 nM

CC(=O)N1CCN(c2cccc3c2ccn3-c2ccnc(N[C@H]3CC[C@H](N(C)S(C)(=O)=O)CC3)n2)CC1 [Compound I-5, N-(4-{4-[4-(4-Acetyl-piperazin-1-yl)-indol-1-yl]-pyrimidin-2-ylamino}-cyclohexyl)-N-methyl-methanesulfonamide]
IC50 [1]: 105 nM | IC50 [2]: 10.3 nM

CS(=O)(=O)N[C@H]1CC[C@H](Nc2nccc(-n3ccc4c(N5CCC(S(C)(=O)=O)CC5)cccc43)n2)CC1 [Compound I-6, N-(4-{4-[4-(4-Methanesulfonyl-piperidin-1-yl)-indol-1-yl]-pyrimidin-2-ylamino}-cyclohexyl)-methanesulfonamide]
IC50 [1]: 23.5 nM | IC50 [2]: 3 nM

CS(=O)(=O)N[C@H]1CC[C@H](Nc2nccc(-n3ccc4c(N5CCN(C(=O)CC#N)CC5)cccc43)n2)CC1 [Compound I-9, N-[4-(4-{4-[4-(2-Cyano-acetyl)-piperazin-1-yl]-indol-1-yl}-pyrimidin-2-ylamino)-cyclohexyl]-methanesulfonamide]
IC50 [1]: 36.2 nM | IC50 [2]: 5.4 nM

CC(=O)OCC(=O)N1CCN(c2cccc3c2ccn3-c2ccnc(N[C@H]3CC[C@H](NS(C)(=O)=O)CC3)n2)CC1 [Compound I-10, Acetic acid 2-(4-{1-[2-(4-methanesulfonylamino-cyclohexylamino)-pyrimidin-4-yl]-1H-indol-4-yl}-piperazin-1-yl)-2-oxo-ethyl ester]
IC50 [1]: 74.9 nM | IC50 [2]: 10.4 nM

CC(=O)N[C@H]1CC[C@H](Nc2nccc(-n3ccc4c(N5CCC(S(C)(=O)=O)CC5)cccc43)n2)CC1 [Compound I-13, N-(4-{4-[4-(4-Methanesulfonyl-piperidin-1-yl)-indol-1-yl]-pyrimidin-2-ylamino}-cyclohexyl)-acetamide]
IC50 [1]: 49.3 nM | IC50 [2]: 6.6 nM

CC(C)(O)[C@H]1CC[C@H](Nc2nccc(-n3ccc4c(N5CCC(S(C)(=O)=O)CC5)cccc43)n2)CC1 [Compound I-14, 2-(4-{4-[4-(4-Methanesulfonyl-piperidin-1-yl)-indol-1-yl]-pyrimidin-2-ylamino}-cyclohexyl)-propan-2-ol]
IC50 [1]: 19.2 nM | IC50 [2]: 3 nM

CN(C)S(=O)(=O)N[C@H]1CC[C@H](Nc2nccc(-n3ccc4c(N5CCC(S(C)(=O)=O)CC5)cccc43)n2)CC1 [Compound I-15, [4-{4-[4-(4-Methanesulfonyl-piperidin-1-yl)-indol-1-yl]-pyrimidin-2-ylamino}-cyclohexyl]aminodimethylsulfonamide]
IC50 [1]: 20.8 nM | IC50 [2]: 3.6 nM

CC(=O)N1CCN(c2cccc3c2ccn3-c2ccnc(N[C@H]3CC[C@H](C(=O)N4CCC(O)CC4)CC3)n2)[C@H](C)C1 [Compound I-21, 1-[(R)-4-(1-{2-[4-(4-Hydroxy-piperidine-1-carbonyl)-cyclohexylamino]-pyrimidin-4-yl}-1H-indol-4-yl)-3-methyl-piperazin-1-yl]-ethanone]
IC50 [1]: 138 nM | IC50 [2]: 31.2 nM

CC(C)(C)OC(=O)NCC(=O)N1CCN(c2cccc3c2ccn3-c2ccnc(N[C@H]3CC[C@H](NS(C)(=O)=O)CC3)n2)CC1 [Compound I-22, [2-(4-{1-[2-(4-Methanesulfonylamino-cyclohexylamino)-pyrimidin-4-yl]-1H-indol-4-yl}-piperazin-1-yl)-2-oxo-ethyl]-carbamic acid tert-butyl ester]
IC50 [1]: 26.4 nM | IC50 [2]: 3.6 nM

CN(C)CC(=O)N1CCN(c2cccc3c2ccn3-c2ccnc(N[C@H]3CC[C@H](NS(C)(=O)=O)CC3)n2)CC1 [Compound I-23, N-[4-(4-{4-[4-(2-Dimethylamino-acetyl)-piperazin-1-yl]-indol-1-yl}-pyrimidin-2-ylamino)-cyclohexyl]-methanesulfonamide]
IC50 [1]: 1630 nM | IC50 [2]: 378 nM

CS(=O)(=O)N[C@H]1CC[C@H](Nc2nccc(-n3ccc4c(N5CCN(C(=O)CN)CC5)cccc43)n2)CC1 [Compound I-24, N-[4-(4-{4-[4-(2-Amino-acetyl)-piperazin-1-yl]-indol-1-yl}-pyrimidin-2-ylamino)-cyclohexyl]-methanesulfonamide]
IC50 [1]: 477 nM | IC50 [2]: 77.7 nM

N#CCC(=O)N1CCN(c2cccc3c2ccn3-c2ccnc(N[C@H]3CC[C@H](CN4CC[C@@H](O)C4)CC3)n2)CC1 [Compound I-25, 3-[4-(1-{2-[4-((R)-3-Hydroxy-pyrrolidin-1-ylmethyl)-cyclohexylamino]-pyrimidin-4-yl}-1H-indol-4-yl)-piperazin-1-yl]-3-oxo-propionitrile]
IC50 [1]: 25.6 nM | IC50 [2]: 4.2 nM

CN(C)CCN([C@H]1CC[C@H](Nc2nccc(-n3ccc4c(N5CCN(C(=O)CC#N)CC5)cccc43)n2)CC1)S(C)(=O)=O [Compound I-26, N-[4-(4-{4-[4-(2-Cyano-acetyl)-piperazin-1-yl]-indol-1-yl}-pyrimidin-2-ylamino)-cyclohexyl]-N-(2-dimethylamino-ethyl)-methanesulfonamide]
IC50 [1]: 24.6 nM | IC50 [2]: 3.7 nM

CC(=O)N1CCN(c2cccc3c2ccn3-c2ccnc(NC3CCCCC3)n2)CC1 [Compound I-37, 1-{4-[1-(2-Cyclohexylamino-pyrimidin-4-yl)-1H-indol-4-yl]-piperazin-1-yl}-ethanone]
IC50 [1]: 4030 nM | IC50 [2]: 48.4 nM

CC(=O)N1CCN(c2cccc3c2ccn3-c2ccnc(N[C@H]3CC[C@H](CS(C)(=O)=O)CC3)n2)CC1 [Compound I-41, 1-(4-{1-[2-(4-Methanesulfonylmethyl-cyclohexylamino)-pyrimidin-4-yl]-1H-indol-4-yl}-piperazin-1-yl)-ethanone]
IC50 [1]: 164 nM | IC50 [2]: 25 nM

CS(=O)(=O)C[C@H]1CC[C@H](Nc2nccc(-n3ccc4c(N5CCN(C(=O)CC#N)CC5)cccc43)n2)CC1 [Compound I-42, 3-(4-{1-[2-(4-Methanesulfonylmethyl-cyclohexylamino)-pyrimidin-4-yl]-1H-indol-4-yl}-piperazin-1-yl)-3-oxo-propionitrile]
IC50 [1]: 13.6 nM | IC50 [2]: 2.4 nM

N#CCC(=O)N1CCN(c2cccc3c2ccn3-c2ccnc(N[C@H]3CC[C@H](O)C3)n2)CC1 [Compound I-60, 3-(4-{1-[2-((1S,3S)-3-Hydroxy-cyclopentylamino)-pyrimidin-4-yl]-1H-indol-4-yl}-piperazin-1-yl)-3-oxo-propionitrile]
IC50 [1]: 150 nM

N#CCC(=O)N1CCN(c2cccc3c2ccn3-c2ccnc(N[C@@H]3CC[C@@H](O)C3)n2)CC1 [Compound I-61, 3-(4-{1-[2-((1R,3R)-3-Hydroxy-cyclopentylamino)-pyrimidin-4-yl]-1H-indol-4-yl}-piperazin-1-yl)-3-oxo-propionitrile]
IC50 [1]: 105 nM

CC(=O)N1CCN(c2cccc3c2c(C(N)=O)cn3-c2ccnc(N[C@H]3CC[C@H](CS(C)(=O)=O)CC3)n2)CC1 [Compound I-64, 4-(4-Acetyl-piperazin-1-yl)-1-[2-(4-methanesulfonylmethyl-cyclohexylamino)-pyrimidin-4-yl]-1H-indole-3-carboxylic acid amide]
IC50 [1]: 13.9 nM
